Measurements reported in patent US20230219951A1, “PYRIDINE-PYRIMIDINE DERIVATIVE, PREPARATION METHOD THEREFOR AND PHARMACEUTICAL USE THEREOF” (Jiangsu Hengrui Pharmaceuticals Co., Ltd., priority 2020, published 2023).

Experiments:
[1] = target: T1, interaction between the KRAS protein subtype G12D and the SOS1 protein (Homo sapiens, UniProt Q07889); assay: Inhibition of the interaction between KRAS G12D and SOS1 protein (AlphaLISA/AlphaScreen); format: binding; settings: KRAS G12D + GST-TEV-SOS1(564-1049) + GDP
T1 construct: GST-TEV-SOS1(564-1049) (Viva Biotech, SOS1-191010); purchased SOS1: Viva Biotech; KRAS: Shanghai Panchao Biotechnology Co., Ltd. SOS1-191010
T1 sequence (Q07889 564-1049): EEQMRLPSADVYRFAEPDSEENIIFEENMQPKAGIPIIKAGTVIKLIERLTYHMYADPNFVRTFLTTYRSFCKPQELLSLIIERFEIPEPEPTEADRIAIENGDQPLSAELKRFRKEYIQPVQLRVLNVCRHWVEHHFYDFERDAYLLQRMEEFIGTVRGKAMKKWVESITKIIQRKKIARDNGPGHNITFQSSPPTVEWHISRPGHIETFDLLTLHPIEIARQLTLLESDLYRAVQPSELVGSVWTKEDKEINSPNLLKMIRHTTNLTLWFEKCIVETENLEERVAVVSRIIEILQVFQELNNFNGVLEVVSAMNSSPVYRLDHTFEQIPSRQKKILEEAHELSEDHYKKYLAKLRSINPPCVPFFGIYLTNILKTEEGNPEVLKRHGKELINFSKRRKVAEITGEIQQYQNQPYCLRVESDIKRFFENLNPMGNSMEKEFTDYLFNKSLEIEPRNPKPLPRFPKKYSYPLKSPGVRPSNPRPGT
Procedure, shortened: (§1)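 Biotinylated KRAS G12D or G12V preincubated with SOS1 and GDP, then with compound (10-point 5-fold series from 40 μM) for 30 min at room temperature in PBS, 0.1% BSA, 0.05% Tween 20. Glutathione acceptor/streptavidin donor beads added for 60 min; Alpha signal read and IC50 calculated.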

[2] = target: T2, interaction between the KRAS protein subtype G12V and the SOS1 protein (Homo sapiens, UniProt Q07889); assay: Inhibition of the interaction between KRAS G12V and SOS1 protein (AlphaLISA/AlphaScreen); format: binding; settings: KRAS G12V + GST-TEV-SOS1(564-1049) + GDP
T2 construct: GST-TEV-SOS1(564-1049) (Viva Biotech, SOS1-191010); purchased SOS1: Viva Biotech; KRAS: Shanghai Panchao Biotechnology Co., Ltd. SOS1-191010
T2 sequence (Q07889 564-1049): T1 sequence (Q07889 564-1049)
Procedure, shortened: as §1

[3] = Pharmacokinetic evaluation in dogs; format: in vivo; settings: both sexes, dog, plasma, po, beagle dogs, intragastric administration, 2 mg/kg
Procedure: The drug concentration in the plasma of the test animals (dogs) at different time points after intragastric administration (i.g.) of compound 18-p1 was determined by using an LC/MS/MS method. The pharmacokinetic behavior in dogs of the compound of the present disclosure was studied and its pharmacokinetic profile was evaluated.
Four beagle dogs, half male and half female, fasted overnight, supplied by animal reserve bank (999M-004). All animals were beagle dogs qualified for physical examination and healthy without abnormalities.
An amount of compound 18-p1 was weighed and dissolved in 5% by volume of DMSO, 20% by volume of PG, and 20% by volume of PEG400, and then prepared into a 0.4 mg/mL clear solution with 55% normal saline.
The administration was performed at a dose of 2.0 mg/kg and a volume of 5.0 mL/kg.
The compound 18-p1 was administered intragastrically to dogs, and 1.0 mL of blood was collected from jugular vein or forelimb vein before administration and 0.25 h, 0.5 h, 1.0 h, 2.0 h, 4.0 h, 6.0 h, 8.0 h, 12.0 h and 24.0 h after administration. The blood was placed in an EDTA-K2 anticoagulation tube and centrifuged at 10,000 rpm for 5 min (4° C.), and plasma was separated out within 1 h and then stored at −80° C. for testing. The process from blood sampling to centrifugation was performed under an ice bath. Food intake was resumed 3 h after administration.
The content of the test compounds at different concentrations in plasma of dogs after administration was determined: 25 μL of plasma of dogs at each time point after administration was taken, and 200 μL of acetonitrile (containing 50 μL of internal standard solution camptothecin, 100 ng/mL) was added; the mixture was vortexed for 5 min, and centrifuged for 10 min (4000 r/min). 0.3 μL of supernatant was taken from the plasma sample for LC/MS/MS analysis.

IC50 [1]: 20 nM | IC50 [2]: 67 nM | Vd/F ([3]; read-out: Apparent distribution volume Vz/F): 2.63 L/kg | AUC(0-t) ([3]; read-out: Area under curve AUC0-t): 4600 ng·h/mL | CL/F ([3]; read-out: Clearance CLz/F): 7.64 mL/min/kg | half-life ([3]; read-out: Half-life T½ (converted)): 3.91 h | Cmax ([3]; read-out: Plasma concentration Cmax): 710 ng/mL
SMILES: Cc1nc(N[C@H](C)c2cccc(C(F)F)c2F)c2cc([C@]3(O)CC[C@@H](O)CC3)c(=O)[nH]c2n1 [Example 18-p1, 4-(((R)-1-(3-(difluoromethyl)-2-fluorophenyl)ethyl)amino)-6-((1s,4S)-1,4-dihydroxycyclohexyl)-2-methylpyrido[2,3-d]pyrimidin-7(8H)-one]
